Measured values from patent publication US8071654B2, “Inhibitors of thromboxane formation and action” (priority 2000, dated 2011).

Legend:
human platelets [1] = assay: PGH2-evoked platelet aggregation; assay type: cell-based; conditions: PGH2 100 ng; PBT-3 at various doses before PGH2
Protocol: Venous blood was obtained from healthy human subjects who had not taken NSAID's for at least two weeks. Blood was drawn into plastic syringes containing ACD. It was immediately centrifuged at 23° at 200×g for 15 min. The platelet rich plasma was transferred into fresh plastic tubes and centrifuged at 400×g for 5 min. The supernatant was discarded and the platelet sediment was resuspended in fresh medium containing NaCl (137 mM), KCl (1 mM), NaH2PO4, glucose (5.5 mM), HEPES (20 mM) and CaCl2 (1 mM) and allowed to stand at room temperature for 30 min. A platelet count was made, which determined the volume of platelet suspension needed to make up 350×10^6 cells for each measurement. The aliquot was diluted with medium to make 0.5 ml/assay/cuvette. […]
0.5 ml of platelet suspension was added to siliconized glass tubes (four at a time) and heated with magnetic stirring to 37° for 1 min in a platelet aggregometer (PAP-4C). […] The response was recorded for the next 5 min. […] In experiments where the conversion of tritiated PGH2 was to be monitored, the procedure described above was repeated with tritiated PGH2 instead of unlabeled PGH2. After extraction of the sample as described above, the radiolabeled compounds were analyzed by TLC. Dose response curves for varying amounts of test compounds were generated and the data expressed as % inhibition of collagen-induced platelet aggregation. […]

Plase A2 = assay: AA formed in collagen-treated washed human platelets (Plase A2), HPLC; assay type: cell-based; conditions: for Plase A2 enzyme activity (% of control values, mean ± SD): n = 3
Protocol: (§1) 0.5 ml of platelet suspension was added to siliconized glass tubes (four at a time) and heated with magnetic stirring to 37° for 1 min in a platelet aggregometer (PAP-4C). Either vehicle alone (ethanol, 1 μl) or hepoxilin analog was then added, followed two min later by agonist (collagen: 2 μg; PGH2: 100 ng/0.5 ml; U46619: 10 ng/0.5 ml or I-BOP: 2 ng/0.5 ml). The response was recorded for the next 5 min. In experiments where analysis of TxB2 and HHT were to be made by HPLC, the platelet suspension at the end of the experiment was diluted with ethyl acetate, 100 ng of prostaglandin B1 was added as internal standard, and the mixture was acidified to pH 3 with 0.1 N HCl. After centrifugation, the organic layer was separated, washed twice with water to neutrality, and evaporated to dryness. Half of the sample was taken and was resuspended in 1 ml ethyl acetate containing 20 μg ADAM reagent, and was left in the dark for 2 h (38). The solvent was then evaporated and the residue was acetylated with a solution of pyridine/acetic anhydride (3/1, v/v) during 16 h at 23°. The reagents were evaporated to dryness and the residue was resuspended in acetonitrile/water for HPLC analysis. In experiments where the conversion of tritiated PGH2 was to be monitored, the procedure described above was repeated with tritiated PGH2 instead of unlabeled PGH2. After extraction of the sample as described above, the radiolabeled compounds were analyzed by TLC. Dose response curves for varying amounts of test compounds were generated and the data expressed as % inhibition of collagen-induced platelet aggregation. Each point was investigated 5 times and statistical analysis of the data was carried out using Macintosh Statview statistical software.
Measurement of eicosanoids formed by platelets during treatment with collagen or the TP receptor agonists in the presence or absence of PBT-3 was carried out by HPLC after appropriate derivatization with a fluorescent tag (anthracyl diazomethane—ADAM) which forms a fluorescent ester (44). The method was adapted to measure the following compounds: TxB2, HHT, 12-HETE and M. The platelet suspension at the end of the experiment was mixed with ethyl acetate, 100 ng of prostaglandin B1 was added as internal standard and the mixture was acidified to pH 3 with 0.1 N HCl. After centrifugation, the organic layer was separated, washed twice with water to neutrality, and evaporated to dryness. The residue was resuspended in ethyl acetate and half of the sample was taken. It was diluted to 0.2 ml with ethyl acetate containing 20 μg ADAM reagent, and was left in the dark for 2 h. The solvent was then evaporated and the residue was acetylated with a solution of pyridine/acetic anhydride (3/1, v/v) for 16 h at 23°. The reagents were evaporated to dryness and the residue was resuspended in acetonitrile/water for HPLC analysis. Dose response curves for varying amounts of test compounds were generated and the data were expressed as % inhibition of agonist-induced platelet aggregation. Each point was investigated 3 times and statistical analysis of the data was carried out using Macintosh Statview statistical software.
Analysis of the anthryl (ADAM)-acetate derivative of TxB2, HHT and 12 HETE in the extracted platelet samples was carried out on a Hewlett Packard (1100 series) HPLC to which was attached a Shimadzu fluorescent detector (RF-10AXL). The detector was operated with excitation at 364 nm, emission at 411 nm. […]

[2] = intra ocular pressure in rats, eye drops, TonoPen; assay type: in vivo, Brown Norway rats; conditions: 0.005%, one drop daily to left eye, after 10 days' treatment, vs untreated right eye
Protocol: Brown Norway rats (300 g) were purchased from Charles River (St. Constant, Que), and housed (two/cage) in an animal facility with free access to food and water. A light cycle of 12 h on and 12 h off was maintained. Animals were allowed to adjust for one week prior to treatment during which period they were handled daily to get them familiarized with the procedures.
Prior to treatment with test drugs, the rats' intra ocular pressures (IOP) were measured to establish baseline readings. One drop of Didocaine (0.5%, Dioptic Labs, Markham, Ont) was administered to each eye, and the pressure in each eye was measured with a TonoPen (Mentor XL, Innova Medical Ophthalmics, Toronto). The treatment protocol consisted of daily administration of one drop of one of the following substances to the left eye, the right eye being left untreated to act as a control. […] Following this, the animals were left without treatment for 2 weeks (wash-out), and then treatment was started again, the same animals receiving the same drugs. Results are calculated from at least 30 readings/test animal and presented as the mean±SEM (left eye vs right eye), with the exclusion of readings >50 and <10 which were considered spurious and artifactual readings.

human platelets [3] = assay: collagen-evoked aggregation of washed human platelets; assay type: cell-based
Protocol: Venous blood was obtained from healthy human subjects who had not taken NSAID's for at least two weeks. Blood was drawn into plastic syringes containing ACD. […] The platelet rich plasma was transferred into fresh plastic tubes and centrifuged at 400×g for 5 min. […] A platelet count was made, which determined the volume of platelet suspension needed to make up 350×10^6 cells for each measurement. The aliquot was diluted with medium to make 0.5 ml/assay/cuvette. Appropriate calibration of the aggregometer (PAP-4C) for 0% and 100% transmission was carried out through the use of a sample of platelet suspension and cell-free medium (37).
as §1

CCCCC/C=C\CC1CC1[C@@H](O)/C=C\C/C=C\CCCC(=O)OC (stereo partly drawn) [PBT-3, 10(S)-hydroxy-11,12-cyclopropyl-eicosa-5Z,8Z,14Z-trienoic acid methyl ester]
inhibition of PGH2-evoked aggregation (human platelets [1]): inhibited the second wave of aggregation
Plase A2 enzyme activity (% of control values, mean ± SD) (Plase A2; PBT-3 0.05 μM): 100.0 ± 6.9^NS % of control
Plase A2 enzyme activity (% of control values, mean ± SD) (Plase A2; PBT-3 0.30 μM): 91.9 ± 5.6^NS % of control
Plase A2 enzyme activity (% of control values, mean ± SD) (Plase A2; PBT-3 0.60 μM): 89.5 ± 15.6^NS % of control
Plase A2 enzyme activity (% of control values, mean ± SD) (Plase A2; PBT-3 3.00 μM): 120.8 ± 18.3^NS % of control
inhibition of Plase A2, in words (Plase A2; relatively large amounts of PBT-3, about 3-4 log doses greater than required to inhibit the TP receptor): Neither COX-1, COX-2,12-LOX nor Plase A2 was inhibited
effect on intra ocular pressure (IOP) [2]: significant reduction in IOP, comparable to that produced by latanoprost
IC50 (human platelets [3]; Homo sapiens, Platelet, washed human platelets, collagen 2 μg, read-out: IC50 for inhibition of collagen-evoked aggregation): ~800 nM
inhibition of collagen-evoked aggregation (human platelets [3]; single dose 1 μg added 2 min prior to collagen (2 μg), 350×10^6 washed human platelets in 0.5 ml): inhibited the collagen effect, with PBT-3 being the most potent
